Patent US20050089583A1, “Novel herbal composition for the treatment of gastric ulcer” (priority 2003, published 2005)

Tests used:
[1] = system: Histamine induced ulcer; experiment: Histamine induced ulcer model; type: in vivo, guinea pig; conditions: HF2 50 mg/Kg p.o., Omeprazole 10 mg/kg p.o.
Procedure: Method: Animals were fasted for 24 hours with access to water. The drug was given orally 1 hour prior to the histamine administration. Histamine was administered in a dose of 0.25 mg/Kg, i.m. at 30 minutes interval-for 7 times and it induced 100% duodenal ulceration in guinea pig (According to the method of Watt and Eagleton 1964)^4. The animals were sacrificed after half an hour of last injection under ether anesthesia. The stomach along with duodenum was removed washed thoroughly and examined for the lesions and ulcer index with protection index was calculated. The effect of the herbal composition “HF2” and the standard drug “Omeprazole” against Histamine induced ulcer model is given in Table 4.

[2] = system: aspirin induced gastric ulcer; experiment: Aspirin induced gastric ulcer model; type: in vivo, rats
From the text: (§1) The following arbitrary scoring system was used to grade the severity and intensity of the lesions. • 1. Shedding of epithelium=10 • 2. Petechial and frank hemorrhages=20 • 3. One or two ulcers=30 • 4. More than two ulcers=40 • 5. Perforated ulcers=50 The presence of any of these lesions was considered as a positive ulcerogenic response which has been shown as percentage of rats showing gastric lesions.
(§2) The severity of ulcers is expressed in terms of ulcer index, which is the mean score of gastric lesions of all the rats in a group which is defined as: • Ulcer Index (U. I.)=Us+Up×10^−1 • Where Us=Mean severity of ulcer score and Up-Percentage of animals with Ulcer incidences.
(§3) The percentage protection is calculated as follows: • Percentage protection ═(C-T/C)×100. • Wherein • C=Number of animals showing ulcer response in control group and • T=Number of animals showing ulcer response in test group.
Method: Gastric ulceration was induced by aspirin according to the method of Djahanguiri (1969). Aspirin (150 mg/Kg.) was administered per orally as a suspension in gum-acacia and the animal was sacrificed 5 hr. after the aspirin treatment and the ulcer index with protection index were calculated.

[3] = system: Cold Restraint Ulcers (CRU); experiment: Cold restraint ulcer (CRU) model; type: in vivo, rats
Procedure: Method: Adult rats of either sex, weighing 150-175 Gms were fasted for 24 hours with free access to water. The test drugs were administered 45 minutes before immobilizing the animals. The rats were immobilized in the restraint cage at 4° C. in BOD incubator for 2 hrs and were sacrificed immediately after the restraint period. (According to the method of Senay and Levine 1967). The abdomen was cut opened; stomach was taken out and incised along the greater curvature to observe the gastric lesions with the help of Magnascope (5× magnification).
as §1, §2, §3

[4] = HF 2 100 mg/Kg p.o., Omeprazole 10 mg/Kg p.o.

COc1ccc2[nH]c([S+]([O-])Cc3ncc(C)c(OC)c3C)nc2c1 (stereo not shown) [Omeprazole]
Percentage of ulcer incidence [1]: 33.3% | Ulcer severity (type of lesions) score 20 (No. Guinea pig showing lesions/No. of Guinea pig tested) ([1]; Histamine 0.25 mg/Kg i.m. × 7): 1/3 | protection against aspirin induced ulcer model [2]: 39.41% | Ulcer severity (type of lesions) score 20 (No. of rats showing lesions/No. of rats tested) ([2]; Aspirin 150 mg/Kg p.o., HF 2 100 mg/Kg p.o., Omeprazole 10 mg/Kg p.o.): 2/6 | Ulcer severity (type of lesions) score 10 (No. of rats showing lesions/No. of rats tested) ([2]; Aspirin 150 mg/Kg p.o., HF 2 100 mg/Kg p.o., Omeprazole 10 mg/Kg p.o., 5 hr): 2/6 | Mean severity of ulcer score [2, 4]: 10.0 | Percentage of ulcer incidence [2, 4]: 66.7% | Protection index [2, 4]: 39.41 | Ulcer index [2, 4]: 7.67 | protection against cold restraint ulcer model [3]: 54.03% | Percentage of ulcer incidence ([3]; HF2 50 mg/Kg p.o., Omeprazole 10 mg/Kg p.o.): 50% | Ulcer severity (type of lesions) score 10 (No. of rats showing lesions/No. of rats tested) ([3]; score 10 = shedding of epithelium, HF2 50 mg/Kg p.o., Omeprazole 10 mg/Kg p.o., 4° C., 2 hrs restraint): 3/10 | Ulcer severity (type of lesions) score 20 (No. of rats showing lesions/No. of rats tested) ([3]; score 20 = petechial and frank hemorrhages, HF2 50 mg/Kg p.o., Omeprazole 10 mg/Kg p.o.): 2/10
